According to article PMC6600241, “Identification and Structure-Activity Studies of 1,3-Dibenzyl-2-aryl imidazolidines as Novel Hsp90 Inhibitors” (Molecules, 2019):
Read-outs that look alike come from different tables or passages of the source.

Tests used:
[1] = system: A549 cells; assay: MTT anti-proliferative assay on A549 cells; assay type: cell-based, human; settings: mean ± SD, three experiments
Description: (§1) The anti-proliferative activity of compounds was determined by MTT (3-[4,5-dimethylthiazole-2-yl]-2,5-diphenyltetrazolium bromide) assay on MCF-7 and A549 cell lines, respectively. Cells were purchased from the Institute of Basic Medical Science, Chinese Academy of Medical Science (Beijing, China). Cells were maintained in RPMI-1640 with 10% fetal bovine serum (FBS) and 1% Penicillin-Streptomycin Solution (PS) and cultured at 37 °C in a humidified atmosphere containing 5% CO2. Compounds to be evaluated were dissolved in DMSO (dimethyl sulfoxide), diluted in RPMI-1640, and stored at −20 °C before use. Cells were seeded in 96-well plates at a density of 5000 cells/well (200 μL) and incubated overnight. Culture medium was replaced with fresh RPMI (Roswell Park Memorial Institute)-1640 containing compounds in different concentrations (100 μM–50 μM–25 μM–12.5 μM–6.25 μM–3.125 μM). Then, cells were incubated in a 5% CO2 incubator for 48 h. The 20 μL MTT solution (5 mg/mL) was added to each well and incubated at 37 °C. After 4 h, the medium was removed and formazan crystals were dissolved in 100 μL DMSO. Absorbance was measured at a wavelength of 490 nm using Synergy H1 (BioTek Instruments, Inc., Winooski, VT, USA). IC50 values were calculated by GraphPad Prism 5 (GraphPad Software, Inc., San Diego, CA, USA).

[2] = system: MCF-7 cells; assay: MTT anti-proliferative assay on MCF-7 cells; assay type: cell-based, human
Description: as §1

[3] = system: Her2; assay: Western blotting, Her2 expression in MCF-7 cells; assay type: cell-based, human; settings: 24 h
Description: (§2) Primary antibodies against Hsp70, Hsp90, Her2, and GAPDH were bought from Abcam (Cambridge, MA, USA). HRP (horseradish peroxidase) labeled anti-rabbit immunoglobulin G (H + L) secondary antibody was purchased from Abbkine (Redlands, CA, USA). MCF-7 cells were cultured as described above to a density of 10^6 cells per dish. […] Cells were washed with cold phosphate buffered saline (PBS, pH = 7.4) three times and lysed in radio immunoprecipitation assay (RIPA) lysate (containing 1% phenylmethanesulfonyl fluoride (PMSF)) on ice for 45 min. The lysates were collected and clarified at 12,000× g for 20 min at 4 °C using high speed refrigerated centrifuge. Protein concentration was determined by the bicinchoninic acid (BCA) protein assay kit. The protein sample (20 µg) was electrophoresed using 8% SDS-PAGE (sodium dodecyl sulfate- polyacrylamide gel electrophoresis), transferred to poly(vinylidene fluoride) (PVDF) membranes, and then blocked for 1 h in 5% skim milk in TBST (20 mM Tris-HCl pH 7.4, 100 mM NaCl, and 0.1% Tween 20). The membranes were immunoblotted with primary antibodies for 2 h at room temperature. After incubation with an HRP anti-rabbit IgG (H + L) (1:100,000) as a secondary antibody, the bands were detected using the ECL^TM Prime Western Blotting Detection System (ProteinSimple, San Jose, CA, USA). The density of proteins was determined using the AlphaView SA (Alpha Innotech Corp., version 3.4.0.0, San Leandro, CA, USA).

[4] = system: Hsp70; assay: Western blotting, Hsp70 expression in MCF-7 cells; assay type: cell-based, human; settings: 24 h; for expression of Hsp70: MCF-7 cells, compound at IC50 concentration
Description: as §2

[5] = system: Hsp90; assay: Western blotting, Hsp90 expression in MCF-7 cells; assay type: cell-based, human; settings: 24 h; for expression of Hsp90: MCF-7 cells, compound at IC50 concentration
Description: as §2

[6] = target: T1, human Hsp90α (Homo sapiens, UniProt P07900); assay: Fluorescence polarization (FP) competitive binding assay, Hsp90α N-Terminal Domain Assay Kit; settings: FITC-labeled geldanamycin competition, mean ± SD, three experiments
T1 construct: FP assay using Hsp90α N-Terminal Domain Assay Kit (BPS Bioscience, Catalog #50293, CA, USA); purchased BPS Bioscience 50293
Description: In brief, the Hsp90 assay buffer (15 μL), 40 mM dithiothreitol (DTT) (5 μL), 2 mg/mL BSA (5 μL), and H2O (40 μL) were added to the plate. To each well, 100 nM fluorescein isothiocyanate (FITC)-labeled geldanamycin (5 μL) and diluted compounds in different concentrations (0.5, 5, 50, 500 μM, 10 μL) were added in an orderly manner. The reactions were initiated by adding 20 μL of Hsp90α (17 ng/μL). […] The data were analyzed using GraphPad Prism 5 (GraphPad Software, Inc.).

[7] = Homo sapiens, MCF7, Figure 3, mean ± SD, n = 3, read-out: anti-proliferative activity against MCF-7 cells (IC50), top 21 molecules from virtual screening
[8] = MCF-7 cells, compound at IC50 concentration
[9] = Homo sapiens, A549, 48-h post treatment
[10] = Homo sapiens, MCF7, MTT, 48-h post treatment, mean ± SD, three experiments, read-out: IC50 MCF-7
[11] = MCF-7 cells, 0, 5, 10, 20 and 40 µM

“1,3-dibenzyl-2-(3-bromo-5-thiazolyl)-imidazolidine [Compound 4k]” showed an IC50 ([1]; 48-h post treatment) of 498.8 ± 0.25 µM and an IC50 ([2]; MTT, 48-h post treatment, mean ± SD, three experiments, read-out: IC50 MCF-7) of 77.01 ± 0.01 µM.

Work on `COc1ccc(-c2nnc(SCC(=O)N3CCOCC3)n2Cc2ccccc2)cc1` [Compound 1b] yielded an IC50 [2, 7] of 133.6 ± 1.13 µM.

`CCOC(=O)c1nnn(Cc2ccccc2Cl)c1NC(=O)CN1CCC(C)CC1` [Compound 1c] gave an IC50 [2, 7] of 134 ± 0.42 µM.

For `NC(=O)c1nnn(Cc2ccccc2)c1NC(=O)CSc1nnc(-c2ccco2)o1` [Compound 1d], the IC50 [2, 7] was 243.3 ± 0.99 µM.

`O=C(Cn1c(-c2ccccn2)nc2ccccc21)NCCc1ccccc1` [Compound 2a] gave an IC50 [2, 7] of 190.6 ± 1.41 µM.

For `O=C(Cn1c(-c2ccccn2)nc2ccccc21)NCCCN1CCOCC1` [Compound 2b], the IC50 [2, 7] was 310.5 ± 0.71 µM.

`COc1ccc(C(=O)/C=C/Nc2ccc(S(=O)(=O)Nc3ccc(OC)nn3)cc2)cc1` [Compound 3a] was tested, and the IC50 [2, 7] was 29.2 ± 0.34 µM.

In the case of `Cc1cc(NC(=O)CCS(=O)(=O)c2nc(-c3ccc4c(c3)OCO4)cc(C(F)(F)F)n2)no1` [Compound 3b], the IC50 [2, 7] is reported as 32.4 ± 0.55 µM.

`O=S(=O)(c1ccccc1)c1nc(-c2ccc(Cl)cc2)oc1NCCCN1CCOCC1` [Compound 3d] gave an IC50 [2, 7] of 70.34 ± 0.2 µM.

`O=S(=O)(c1ccccc1)c1nc(-c2ccco2)oc1NCc1ccc(F)cc1` [Compound 3e] gave an IC50 [2, 7] of 238 ± 0.71 µM.

In the case of `O=[N+]([O-])c1ccc(C2N(Cc3ccccc3)CCN2Cc2ccccc2)s1` [Compound 4a], the “expression level of Her2” value [3, 8] is reported as “significantly down-regulated”, the “expression level of Her2 down-regulated to” value [3, 8] is reported as 48% and the “expression of Hsp70” value [4] is reported as “significantly induced”. For the same compound, the IC50 [1, 9] was 31.22 ± 0.31 µM, the “expression of Hsp90” value [5] was “slightly increased” and the IC50 [2, 10] was 21.6 ± 0.57 µM. For the same compound, the IC50 [6] was 12 ± 10 nM.

`Cc1ccc(O)c(C2N(Cc3ccccc3)CCN2Cc2ccccc2)c1` [Compound 4b] was tested, and the “expression level of Her2” value [3, 8] was “significantly down-regulated”, the “expression of Hsp70” value [4] was “significantly induced” and the IC50 [1, 9] was 88.58 ± 0.08 µM. For the same compound, the “expression of Hsp90” value [5] was “slightly increased”, the IC50 [2, 10] was 50.62 ± 0.26 µM and the IC50 [6] was 612 ± 14 nM.

Compound `c1ccc(CN2CCN(Cc3ccccc3)C2c2cccs2)cc1` [Compound 4c, 1,3-dibenzyl-2-thiophene-imidazolidine] has an IC50 [1, 9] of 78.18 ± 0.15 µM and an IC50 [2, 10] of 80.04 ± 0.63 µM.

In the case of `Clc1ccc(C2N(Cc3ccccc3)CCN2Cc2ccccc2)s1` [Compound 4d, 1,3-dibenzyl-2-(5-chlorothiophene)-imidazolidine], the IC50 [1, 9] is reported as 56.3 ± 1.27 µM, the IC50 [2, 10] is reported as 68.35 ± 0.44 µM and the IC50 [6] is reported as 672 ± 10 nM.

Work on `Cc1ccc(C2N(Cc3ccccc3)CCN2Cc2ccccc2)s1` [Compound 4e, 1,3-dibenzyl-2-(5-Methylthiophene)-imidazolidine] yielded an IC50 [1, 9] of 113 ± 1.41 µM and an IC50 [2, 10] of 119.3 ± 0.42 µM.

Work on `c1ccc(CN2CCN(Cc3ccccc3)C2c2cc3ccccc3s2)cc1` [Compound 4f, 1,3-dibenzyl-2-(1-benzothiophene)-imidazolidine] yielded an IC50 [1, 9] of 136 ± 1.41 µM and an IC50 [2, 10] of 219.4 ± 0.57 µM.

Work on `O=[N+]([O-])c1ccccc1C1N(Cc2ccccc2)CCN1Cc1ccccc1` [Compound 4g, 1,3-dibenzyl-2-(2-nitro-phenyl)-imidazolidine] yielded an IC50 [1, 9] of 40.6 ± 0.51 µM and an IC50 [2, 10] of 40.91 ± 0.05 µM.

`O=[N+]([O-])c1ccc(C2N(Cc3ccccc3)CCN2Cc2ccccc2)cc1` [Compound 4h, 1,3-dibenzyl-2-(4-nitro-phenyl)-imidazolidine] gave an IC50 [1, 9] of 55.6 ± 0.49 µM and an IC50 [2, 10] of 117.7 ± 0.01 µM.

`Fc1ccc(Cl)cc1C1N(Cc2ccccc2)CCN1Cc1ccccc1` [Compound 4i, 1,3-dibenzyl-2-(5-chloro-2-fluoro-phenyl)-imidazolidine] was tested, and the IC50 [1, 9] was 59.3 ± 0.83 µM, the IC50 [2, 10] was 27.86 ± 0.01 µM and the IC50 [6] was 610 ± 14 nM.

With `Clc1ncc(C2N(Cc3ccccc3)CCN2Cc2ccccc2)s1` [Compound 4j, 1,3-dibenzyl-2-(2-chloro-5-thiazolyl)-imidazolidine] the “expression level of Her2 regulated” value [3, 11] was “concentration-dependent manner”, the “expression level of Hsp70 regulated” value [4, 11] was “concentration-dependent manner” and the IC50 [1, 9] was 35.3 ± 0.14 µM. The “expression level of Hsp90 regulated” value [5, 11] was “concentration-dependent manner”, the IC50 [2, 10] was 33.12 ± 0.23 µM and the IC50 [6] was 310 ± 14 nM.

`Clc1ccc(C2N(Cc3ccccc3)CCN2Cc2ccccc2)c(Cl)n1` [Compound 4n] was tested, and the IC50 [1, 9] was 52.11 ± 0.5 µM, the IC50 [2, 10] was 40.4 ± 0.51 µM and the IC50 [6] was 102 ± 10 nM.

`Brc1cncc(C2N(Cc3ccccc3)CCN2Cc2ccccc2)c1` [Compound 4p] gave an IC50 [1, 9] of 72.87 ± 0.66 µM and an IC50 [2, 10] of 45.2 ± 0.63 µM.

Work on `c1ccc(CN2CCN(Cc3ccccc3)C2c2cncnc2)cc1` [Compound 4r] yielded an IC50 [1, 9] of 80.8 ± 1 µM and an IC50 [2, 10] of 51.4 ± 0.54 µM.

Compound `c1ccc(N2CCN(c3ccccc3)C2c2ccco2)cc1` [Compound 6a] has an IC50 [1, 9] of 123.4 ± 0.85 µM and an IC50 [2, 10] of 40.77 ± 0.39 µM.

For `Clc1ncc(C2N(c3ccccc3)CCN2c2ccccc2)s1` [Compound 6b], the IC50 [1, 9] was 172 ± 1.41 µM and the IC50 [2, 10] was 161.6 ± 0.57 µM.

`Fc1ccc(Cl)cc1C1N(c2ccccc2)CCN1c1ccccc1` [Compound 6c] gave an IC50 [1, 9] of 46.14 ± 0.2 µM, an IC50 [2, 10] of 43.7 ± 1.03 µM and an IC50 [6] of 1930 ± 13 nM.

With `Clc1ccc(C2N(c3ccccc3)CCN2c2ccccc2)c(Cl)n1` [Compound 6d] the IC50 [1, 9] was 248.6 ± 0.57 µM and the IC50 [2, 10] was 323 ± 2.28 µM.

`CCN1CCN(CC)C1c1ccnc(Cl)c1` [Compound 7a] gave an IC50 [1, 9] of 250.1 ± 1.27 µM and an IC50 [2, 10] of over 500 µM.

Work on `CCN1CCN(CC)C1c1cc(Cl)ccc1F` [Compound 7b] yielded an IC50 [1, 9] of 164 ± 1.41 µM and an IC50 [2, 10] of 158.9 ± 0.14 µM.

`CN1CCN(C)C1c1cc(Cl)ccc1F` [Compound 8a] gave an IC50 [1, 9] of 149 ± 1.56 µM and an IC50 [2, 10] of 250.1 ± 0.27 µM.

With `C=CCNC1=C2CC(C)CC(OC)C(O)C(C)C=C(C)C(OC(N)=O)C(OC)C=CC=C(C)C(=O)NC(=CC1=O)C2=O` (stereo not shown) [Compound 17-AAG, reference compound] the IC50 [1, 9] was 3.54 ± 0.08 µM and the IC50 [2, 10] was 7.18 ± 0.13 µM.
